Experimental data: patent US10004701B2, “Methods and compositions for treating infection” (UNIVERSITY OF ROCHESTER, priority 2012, dated 2018)
Where a name gives a salt, the structure may show the parent alone. Read-outs that look alike come from different tables or passages of the source.

Experiments:
Assay in all cases: AK assay 384-well format, Prestwick library screening
E. faecium = assay type: cell-based, Enterococcus faecium; details: for fold induction at 50 µM: Enterococcus faecium, 3 h
[1] = test system: S. aureus strain USA300-0114; assay type: cell-based, Staphylococcus aureus; details: for fold induction at 50 µM: Staphylococcus aureus, USA300, 3 h
K. pneumoniae = assay type: cell-based, Klebsiella pneumoniae; details: for fold induction at 50 µM: Klebsiella pneumoniae, 3 h
[2] = test system: A. baumannii strain 98-37-09; assay type: cell-based, Acinetobacter baumannii; details: for fold induction at 50 µM: Acinetobacter baumannii, 983709, 3 h
P. aeruginosa = assay type: cell-based, Pseudomonas aeruginosa; details: for fold induction at 50 µM: Pseudomonas aeruginosa, 3 h
E. coli = assay type: cell-based, Escherichia coli; details: for fold induction at 50 µM: Escherichia coli, 3 h
E. cloacae = assay type: cell-based, Enterobacter cloacae; details: Enterobacter cloacae, 3 h; planktonic E. cloacae; 50 μM final drug concentration; cutoff for positive-scoring molecules 3-fold increase; read-out: AK-based Prestwick Library Screening Results, E. cloacae (increase in extracellular AK activity)
[3] = planktonic E. coli, 50 μM final drug concentration, 384-well, […]

Work on `CN1[C@@H]2CC[C@H]1C[C@@H](OC(=O)C(CO)c1ccccc1)C2` (stereo partly shown) [Atropine sulfate monohydrate] yielded a fold induction at 50 µM (E. faecium; planktonic E. faecium, 50 μM final drug concentration, […], read-out: AK-based Prestwick Library Screening Results, E. faecium (increase in extracellular AK activity)) of 0.8, a fold induction at 50 µM ([1]; planktonic S. aureus, 50 μM final drug concentration, […], read-out: AK-based Prestwick Library Screening Results, S. aureus (increase in extracellular AK activity)) of 0.5 and a fold induction at 50 µM (K. pneumoniae; planktonic K. pneumoniae, 50 μM final drug concentration, […], read-out: AK-based Prestwick Library Screening Results, K. pneumoniae (increase in extracellular AK activity)) of 0.5. It also gave a fold induction at 50 µM ([2]; planktonic A. baumannii, 50 μM final drug concentration, […], read-out: AK-based Prestwick Library Screening Results, A. baumannii (increase in extracellular AK activity)) of 0.5, a fold induction at 50 µM (P. aeruginosa; planktonic P. aeruginosa, 50 μM final drug concentration, […], read-out: AK-based Prestwick Library Screening Results, P. aeruginosa (increase in extracellular AK activity)) of 0.5 and a fold induction at 50 µM (E. coli; planktonic E. coli, 50 μM final drug concentration, […], read-out: AK-based Prestwick Library Screening Results, E. coli (increase in extracellular AK activity)) of 0.6.

`CCOC(=O)c1cncn1[C@H](C)c1ccccc1` [Etomidate] was tested, and the fold induction at 50 µM (E. faecium; 50 μM final drug concentration, […], read-out: AK-based Prestwick Library Screening Results, E. faecium (fold increase in extracellular AK activity)) was 0.9, the fold induction at 50 µM ([1]; 50 μM final drug concentration, […], read-out: AK-based Prestwick Library Screening Results, S. aureus (fold increase in extracellular AK activity)) was 0.3 and the fold induction at 50 µM (K. pneumoniae; 50 μM final drug concentration, […], read-out: AK-based Prestwick Library Screening Results, K. pneumoniae (fold increase in extracellular AK activity)) was 0.4. For the same compound, the fold induction at 50 µM ([2]; 50 μM final drug concentration, […], read-out: AK-based Prestwick Library Screening Results, A. baumannii (fold increase in extracellular AK activity)) was 0.3, the fold induction at 50 µM (P. aeruginosa; 50 μM final drug concentration, […], read-out: AK-based Prestwick Library Screening Results, P. aeruginosa (fold increase in extracellular AK activity)) was 0.4 and the fold induction at 50 µM (E. coli; 50 μM final drug concentration, […], read-out: AK-based Prestwick Library Screening Results, E. coli (fold increase in extracellular AK activity)) was 0.5.

For `CN1[C@@H]2CC[C@H]1C[C@@H](OC(=O)[C@H](CO)c1ccccc1)C2` [Hyoscyamine (L)], the “AK-based Prestwick Library Screening Results: E. faecium (increase in extracellular AK activity)” value (E. faecium; planktonic E. faecium, 50 μM final drug concentration, 384-well, […]) was 1.0, the “AK-based Prestwick Library Screening Results: S. aureus (increase in extracellular AK activity)” value ([1]; planktonic S. aureus, 50 μM final drug concentration, 384-well, […]) was 1.2 and the “AK-based Prestwick Library Screening Results: K. pneumoniae (increase in extracellular AK activity)” value (K. pneumoniae; planktonic K. pneumoniae, 50 μM final drug concentration, 384-well, […]) was 1.2. The “AK-based Prestwick Library Screening Results: A. baumannii (increase in extracellular AK activity)” value ([2]; planktonic A. baumannii, 50 μM final drug concentration, 384-well, […]) was 1.4, the “AK-based Prestwick Library Screening Results: P. aeruginosa (increase in extracellular AK activity)” value (P. aeruginosa; planktonic P. aeruginosa, 50 μM final drug concentration, 384-well, […]) was 1.2 and the “AK-based Prestwick Library Screening Results: E. coli (increase in extracellular AK activity)” value (E. coli; [3]) was 1.3.

Compound `CN(C)CCCN1c2ccccc2CCc2ccccc21` [Imipramine hydrochloride] has a fold induction at 50 µM (E. faecium; planktonic E. faecium, 50 μM final drug concentration, 384-well, cutoff for positive-scoring molecules 3-fold increase, read-out: AK-based Prestwick Library Screening Results: E. faecium (increase in extracellular AK activity)) of 0.9, a fold induction at 50 µM ([1]; planktonic S. aureus, 50 μM final drug concentration, 384-well, cutoff for positive-scoring molecules 3-fold increase, read-out: AK-based Prestwick Library Screening Results: S. aureus (increase in extracellular AK activity)) of 1.2 and a fold induction at 50 µM (K. pneumoniae; planktonic K. pneumoniae, 50 μM final drug concentration, 384-well, cutoff for positive-scoring molecules 3-fold increase, read-out: AK-based Prestwick Library Screening Results: K. pneumoniae (increase in extracellular AK activity)) of 1. For the same compound, the fold induction at 50 µM ([2]; planktonic A. baumannii, 50 μM final drug concentration, 384-well, cutoff for positive-scoring molecules 3-fold increase, read-out: AK-based Prestwick Library Screening Results: A. baumannii (increase in extracellular AK activity)) was 1.3, the fold induction at 50 µM (P. aeruginosa; planktonic P. aeruginosa, 50 μM final drug concentration, 384-well, cutoff for positive-scoring molecules 3-fold increase, read-out: AK-based Prestwick Library Screening Results: P. aeruginosa (increase in extracellular AK activity)) was 1.1 and the fold induction at 50 µM (E. coli; planktonic E. coli, 50 μM final drug concentration, 384-well, cutoff for positive-scoring molecules 3-fold increase, read-out: AK-based Prestwick Library Screening Results: E. coli (increase in extracellular AK activity)) was 1.2.

With `O=C1CC[C@@]2(O)[C@H]3Cc4ccc(O)c5c4[C@@]2(CCN3CC2CC2)[C@H]1O5` [Naltrexone hydrochloride dihydrate] the fold induction at 50 µM (E. faecium; read-out: AK-based Prestwick Library Screening Results, E. faecium (increase in extracellular AK activity)) was 1, the fold induction at 50 µM ([1]; read-out: AK-based Prestwick Library Screening Results, S. aureus (increase in extracellular AK activity)) was 0.7 and the fold induction at 50 µM (K. pneumoniae; read-out: AK-based Prestwick Library Screening Results, K. pneumoniae (increase in extracellular AK activity)) was 0.6. For the same compound, the fold induction at 50 µM ([2]; read-out: AK-based Prestwick Library Screening Results, A. baumannii (increase in extracellular AK activity)) was 0.9, the fold induction at 50 µM (P. aeruginosa; read-out: AK-based Prestwick Library Screening Results, P. aeruginosa (increase in extracellular AK activity)) was 0.8 and the fold induction at 50 µM (E. coli; read-out: AK-based Prestwick Library Screening Results, E. coli (increase in extracellular AK activity)) was 0.9.

Work on `COc1cc2nc(N3CCN(C(=O)c4ccco4)CC3)nc(N)c2cc1OC` [Prazosin hydrochloride] yielded a fold induction at 50 µM (E. faecium; 50 μM final drug concentration, cutoff for positive-scoring molecules 3-fold increase, read-out: AK-based Prestwick Library Screening Results, E. faecium (fold increase in extracellular AK activity)) of 1.1, a fold induction at 50 µM ([1]; 50 μM final drug concentration, cutoff for positive-scoring molecules 3-fold increase, read-out: AK-based Prestwick Library Screening Results, S. aureus (fold increase in extracellular AK activity)) of 1.4 and a fold induction at 50 µM (K. pneumoniae; 50 μM final drug concentration, cutoff for positive-scoring molecules 3-fold increase, read-out: AK-based Prestwick Library Screening Results, K. pneumoniae (fold increase in extracellular AK activity)) of 0.9. It also gave a fold induction at 50 µM ([2]; 50 μM final drug concentration, cutoff for positive-scoring molecules 3-fold increase, read-out: AK-based Prestwick Library Screening Results, A. baumannii (fold increase in extracellular AK activity)) of 1.4, a fold induction at 50 µM (P. aeruginosa; 50 μM final drug concentration, cutoff for positive-scoring molecules 3-fold increase, read-out: AK-based Prestwick Library Screening Results, P. aeruginosa (fold increase in extracellular AK activity)) of 1.1 and a fold induction at 50 µM (E. coli; 50 μM final drug concentration, cutoff for positive-scoring molecules 3-fold increase, read-out: AK-based Prestwick Library Screening Results, E. coli (fold increase in extracellular AK activity)) of 1.2.

`C=C[C@H]1C[N@@]2CC[C@H]1C[C@@H]2[C@@H](O)c1ccnc2ccc(OC)cc12` [Quinidine hydrochloride monohydrate] showed a fold induction at 50 µM (E. faecium; 50 μM final drug concentration, 384-well format, […], read-out: AK-based Prestwick Library Screening Results, E. faecium (increase in extracellular AK activity)) of 1, a fold induction at 50 µM ([1]; 50 μM final drug concentration, 384-well format, […], read-out: AK-based Prestwick Library Screening Results, S. aureus (increase in extracellular AK activity)) of 0.9 and a fold induction at 50 µM (K. pneumoniae; 50 μM final drug concentration, 384-well format, […], read-out: AK-based Prestwick Library Screening Results, K. pneumoniae (increase in extracellular AK activity)) of 0.8. For the same compound, the fold induction at 50 µM ([2]; 50 μM final drug concentration, 384-well format, […], read-out: AK-based Prestwick Library Screening Results, A. baumannii (increase in extracellular AK activity)) was 0.9, the fold induction at 50 µM (P. aeruginosa; 50 μM final drug concentration, 384-well format, […], read-out: AK-based Prestwick Library Screening Results, P. aeruginosa (increase in extracellular AK activity)) was 0.9 and the fold induction at 50 µM (E. coli; 50 μM final drug concentration, 384-well format, […], read-out: AK-based Prestwick Library Screening Results, E. coli (increase in extracellular AK activity)) was 1.

With `Oc1ccc(C=Cc2cc(O)cc(O)c2)cc1` [Resveratrol] the fold induction at 50 µM (E. cloacae) was 0.1.

Work on `Clc1ccccc1CN1CCc2sccc2C1` [Ticlopidine hydrochloride] yielded a fold induction at 50 µM (E. faecium; 50 μM final drug concentration, 384-well format, cutoff for positive-scoring molecules 3-fold increase, read-out: AK-based Prestwick Library Screening Results, E. faecium (increase in extracellular AK activity)) of 1, a fold induction at 50 µM ([1]; 50 μM final drug concentration, 384-well format, cutoff for positive-scoring molecules 3-fold increase, read-out: AK-based Prestwick Library Screening Results, S. aureus (increase in extracellular AK activity)) of 0.8 and a fold induction at 50 µM (K. pneumoniae; 50 μM final drug concentration, 384-well format, cutoff for positive-scoring molecules 3-fold increase, read-out: AK-based Prestwick Library Screening Results, K. pneumoniae (increase in extracellular AK activity)) of 1. It also gave a fold induction at 50 µM ([2]; 50 μM final drug concentration, 384-well format, cutoff for positive-scoring molecules 3-fold increase, read-out: AK-based Prestwick Library Screening Results, A. baumannii (increase in extracellular AK activity)) of 1.1, a fold induction at 50 µM (P. aeruginosa; 50 μM final drug concentration, 384-well format, cutoff for positive-scoring molecules 3-fold increase, read-out: AK-based Prestwick Library Screening Results, P. aeruginosa (increase in extracellular AK activity)) of 1.1 and a fold induction at 50 µM (E. coli; 50 μM final drug concentration, 384-well format, cutoff for positive-scoring molecules 3-fold increase, read-out: AK-based Prestwick Library Screening Results, E. coli (increase in extracellular AK activity)) of 1.3.

`COc1ccc(CCN(C)CCCC(C#N)(c2ccc(OC)c(OC)c2)C(C)C)cc1OC.Cl` (stereo not shown) [Verapamyl hydrochloride] was tested, and the “AK-based Prestwick Library Screening Results: E. faecium (increase in extracellular AK activity)” value (E. faecium; planktonic E. faecium, 50 μM final drug concentration, 384-well, cutoff for positive-scoring molecules 3-fold increase) was 0.9, the “AK-based Prestwick Library Screening Results: S. aureus (increase in extracellular AK activity)” value ([1]; planktonic S. aureus, 50 μM final drug concentration, 384-well, cutoff for positive-scoring molecules 3-fold increase) was 1.2 and the “AK-based Prestwick Library Screening Results: K. pneumoniae (increase in extracellular AK activity)” value (K. pneumoniae; planktonic K. pneumoniae, 50 μM final drug concentration, 384-well, cutoff for positive-scoring molecules 3-fold increase) was 0.9. For the same compound, the “AK-based Prestwick Library Screening Results: A. baumannii (increase in extracellular AK activity)” value ([2]; planktonic A. baumannii, 50 μM final drug concentration, 384-well, cutoff for positive-scoring molecules 3-fold increase) was 1.5, the “AK-based Prestwick Library Screening Results: P. aeruginosa (increase in extracellular AK activity)” value (P. aeruginosa; planktonic P. aeruginosa, 50 μM final drug concentration, 384-well, cutoff for positive-scoring molecules 3-fold increase) was 1.2 and the “AK-based Prestwick Library Screening Results: E. coli (increase in extracellular AK activity)” value (E. coli; [3]) was 1.3.
